A word on the inhibition: it is the change of the read-out against control, counted positive when it falls.

Here are results for 14 compounds from patent US20240309043A1, “THERAPEUTICALLY ACTIVE STEROIDAL DERIVATIVES” (Organon R&D Finland Ltd., priority 2017, published 2024).

Type in all cases: biochemical
Assay [1] deals with T1, recombinant human 17β-HSD1 (Homo sapiens, UniProt P14061).
T1 construct: made in house; host or cells: Sd9 (Sf9) insect cells, baculovirus (Bac to Bac Expression System)
T1 sequence (P14061 1-328): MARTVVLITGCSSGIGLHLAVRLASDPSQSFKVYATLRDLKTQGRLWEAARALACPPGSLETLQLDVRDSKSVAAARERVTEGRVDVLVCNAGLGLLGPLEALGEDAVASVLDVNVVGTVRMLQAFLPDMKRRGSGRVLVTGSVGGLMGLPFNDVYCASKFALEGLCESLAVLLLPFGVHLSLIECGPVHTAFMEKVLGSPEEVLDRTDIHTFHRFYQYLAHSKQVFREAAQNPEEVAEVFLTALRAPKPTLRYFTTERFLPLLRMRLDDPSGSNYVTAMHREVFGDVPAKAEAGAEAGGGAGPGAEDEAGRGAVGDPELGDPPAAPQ
The experiment in a line: Inhibition of recombinant human 17β-HSD1. To be noted: inhibitor 100 nM; 30 nM estrone, 1 mM NADPH, 30 min RT. An outline of the steps:
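Microsomes from Sf9 cells expressing human 17β-HSD1 (1 μg/ml) were incubated for 30 min at RT in 20 mM KH2PO4 pH 7.4 with 30 nM ³H-estrone, 1 mM NADPH and inhibitor at 1 μM or 0.1 μM (1% DMSO). Estrone-to-estradiol conversion was measured by radio-HPLC after TCA stop, and % inhibition was taken as 100 − % conversion.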

Assay [2] concerns the target T2, recombinant human 17β-HSD2 (Homo sapiens, UniProt P37059).
T2 construct: made in house; host or cells: Sd9 (Sf9) insect cells, baculovirus (Bac to Bac Expression System)
T2 sequence (P37059 1-387): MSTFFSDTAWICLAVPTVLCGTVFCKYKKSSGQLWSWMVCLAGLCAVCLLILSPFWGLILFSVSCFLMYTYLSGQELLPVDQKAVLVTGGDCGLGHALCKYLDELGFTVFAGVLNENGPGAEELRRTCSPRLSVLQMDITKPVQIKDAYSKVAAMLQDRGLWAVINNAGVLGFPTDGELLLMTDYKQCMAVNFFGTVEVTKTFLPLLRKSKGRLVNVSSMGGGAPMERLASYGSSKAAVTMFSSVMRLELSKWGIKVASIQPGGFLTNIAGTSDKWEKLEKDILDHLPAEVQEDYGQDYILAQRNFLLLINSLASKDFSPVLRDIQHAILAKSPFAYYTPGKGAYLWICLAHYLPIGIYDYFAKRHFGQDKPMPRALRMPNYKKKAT
The experiment in a line: Inhibition of recombinant human 17β-HSD2. To be noted: inhibitor 1 μM; 50 nM estradiol, 1 mM NADH, 30 min RT. An outline of the steps:
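Sf9 baculovirus-expressed enzyme membrane extract (4 μg/ml) incubated 30 min at RT in 20 mM KH2PO4 pH 8.5 with 50 nM estradiol (³H-tracer) and 1 mM NADH, inhibitor at 1 μM or 0.1 μM, 1% DMSO. TCA-stopped; estradiol-to-estrone conversion by radio-HPLC, % inhibition = 100 − % conversion.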

For assay [3], the system named is HSD1 enzyme that is expressed in rabbit placenta tissue. Description: Inhibition of E1 to E2 conversion in rabbit placenta tissue homogenate. The settings on record: for Rabbit placenta inhibition % @100 nM: inhibitor 100 nM, 30 nM estrone, 30 min.

For the compound `C[C@]12CCC3c4cccc(F)c4CCC3C1[C@H](CCC(=O)NC1CCOCC1)C/C2=N\O` (stereo partly drawn) [Compound 122, 3-((13S,15R,E)-4-fluoro-17-(hydroxyimino)-13-methyl-7,8,9,11,12,13,14,15,16,17-decahydro-6H-cyclopenta[a]phenanthren-15-yl)-N-(tetrahydro-2H-pyran-4-yl)propanamide], the inhibition at 0.1 µM in assay [1] is 67%. In addition, the inhibition at 1 µM in assay [2] was determined as 6%. Besides, the “Rabbit placenta inhibition % @100 nM” value in assay [3] was 4%.

`C[C@]12CCC3c4cccc(F)c4CCC3C1[C@H](CCC(=O)NC1CCCCC1)C/C2=N\O` (stereo partly drawn) [Compound 124, N-Cyclohexyl-3-((13S,15R,E)-4-fluoro-17-(hydroxyimino)-13-methyl-7,8,9,11,12,13,14,15,16,17-decahydro-6H-cyclopenta[a]phenanthren-15-yl)propanamide]: the inhibition at 0.1 µM in assay [1] came out at 86%. The inhibition at 1 µM in assay [2] is 4%. The “Rabbit placenta inhibition % @100 nM” value in assay [3] was determined as 4%.

For `C[C@]12CCC3c4cccc(F)c4CCC3C1[C@H](CCC(=O)Nc1cnccn1)C/C2=N\O` (stereo partly drawn) [Compound 126, 3-((13S,15R,E)-4-fluoro-17-(hydroxyimino)-13-methyl-7,8,9,11,12,13,14,15,16,17-decahydro-6H-cyclopenta[a]phenanthren-15-yl)-N-(pyrazin-2-yl)propanamide], the inhibition at 0.1 µM in assay [1] stood at 53%. For the same compound, the inhibition at 1 µM in assay [2] was determined as 3%. Moreover, the “Rabbit placenta inhibition % @100 nM” value in assay [3] stood at 26%.

For the compound `C[C@]12CCC3c4cccc(F)c4CCC3C1[C@H](CCC(=O)N1CCC3(CCOCC3)C1)C/C2=N\O` (stereo partly drawn) [Compound 128, 3-((13S,15R,E)-4-fluoro-17-(hydroxyimino)-13-methyl-7,8,9,11,12,13,14,15,16,17-decahydro-6H-cyclopenta[a]phenanthren-15-yl)-1-(8-oxa-2-azaspiro[4.5]decan-2-yl)propan-1-one], in assay [1], the inhibition at 0.1 µM came out at 59%. In assay [2], the inhibition at 1 µM came to 6%. For the same compound, the “Rabbit placenta inhibition % @100 nM” value in assay [3] worked out at 2%.

Regarding `Cc1ccnc(NC(=O)CC[C@@H]2C/C(=N\O)[C@@]3(C)CCC4c5cccc(F)c5CCC4C23)c1` (stereo partly drawn) [Compound 130, 3-((13S,15R,E)-4-fluoro-17-(hydroxyimino)-13-methyl-7,8,9,11,12,13,14,15,16,17-decahydro-6H-cyclopenta[a]phenanthren-15-yl)-N-(4-methylpyridin-2-yl)propanamide], the inhibition at 0.1 µM in assay [1] stood at 92%. Also, in assay [2], the inhibition at 1 µM is 14%. Besides, the “Rabbit placenta inhibition % @100 nM” value in assay [3] came to 40%.

For `COc1ccnc(NC(=O)CC[C@@H]2C/C(=N\O)[C@@]3(C)CCC4c5cccc(F)c5CCC4C23)c1` (stereo partly drawn) [Compound 132, 3-((13S,15R,E)-4-fluoro-17-(hydroxyimino)-13-methyl-7,8,9,11,12,13,14,15,16,17-decahydro-6H-cyclopenta[a]phenanthren-15-yl)-N-(4-methoxypyridin-2-yl)propanamide], in assay [1], the inhibition at 0.1 µM is 87%. In addition, in assay [2], the inhibition at 1 µM was found to be 6%. Besides, in assay [3], the “Rabbit placenta inhibition % @100 nM” value worked out at 27%.

As to `Cc1cc(NC(=O)CC[C@@H]2C/C(=N\O)[C@@]3(C)CCC4c5ccc(F)cc5CCC4C23)no1` (stereo partly drawn) [Compound 134, 3-((13S,15R,E)-3-fluoro-17-(hydroxyimino)-13-methyl-7,8,9,11,12,13,14,15,16,17-decahydro-6H-cyclopenta[a]phenanthren-15-yl)-N-(5-methylisoxazol-3-yl)propanamide], the inhibition at 0.1 µM in assay [1] was 75%. In assay [2], the inhibition at 1 µM was -3%. The “Rabbit placenta inhibition % @100 nM” value in assay [3] was found to be 46%.

As to `C[C@]12CCC3c4cccc(F)c4CCC3C1[C@H](CCC(=O)N1CCOCC1)C/C2=N\O` (stereo partly drawn) [Compound 136, 3-((13S,15R,E)-4-fluoro-17-(hydroxyimino)-13-methyl-7,8,9,11,12,13,14,15,16,17-decahydro-6H-cyclopenta[a]phenanthren-15-yl)-1-morpholinopropan-1-one], the inhibition at 0.1 µM in assay [1] was determined as 39%. Moreover, in assay [2], the inhibition at 1 µM was -1%. Besides, the “Rabbit placenta inhibition % @100 nM” value in assay [3] was 18%.

Regarding `C[C@]12CCC3c4cccc(F)c4CCC3C1[C@H](CCC(=O)Nc1cc(F)ccn1)C/C2=N\O` (stereo partly drawn) [Compound 140, 3-((13S,15R,E)-4-fluoro-17-(hydroxyimino)-13-methyl-7,8,9,11,12,13,14,15,16,17-decahydro-6H-cyclopenta[a]phenanthren-15-yl)-N-(4-fluoropyridin-2-yl)propanamide], the inhibition at 0.1 µM in assay [1] stood at 86%. For the same compound, the inhibition at 1 µM in assay [2] is 6%. In addition, in assay [3], the “Rabbit placenta inhibition % @100 nM” value was determined as 24%.

In the case of `C[C@]12CCC3c4cccc(F)c4CCC3C1[C@H](CCC(=O)Nc1ncccc1F)C/C2=N\O` (stereo partly drawn) [Compound 142, 3-((13S,15R,E)-4-fluoro-17-(hydroxyimino)-13-methyl-7,8,9,11,12,13,14,15,16,17-decahydro-6H-cyclopenta[a]phenanthren-15-yl)-N-(3-fluoropyridin-2-yl)propanamide], the inhibition at 0.1 µM in assay [1] was 93%. Also, the inhibition at 1 µM in assay [2] was -1%. The “Rabbit placenta inhibition % @100 nM” value in assay [3] is on record as 34%.

Turning to `C[C@]12CCC3c4cccc(F)c4CCC3C1[C@H](CCC(=O)Nc1cccc(F)n1)C/C2=N\O` (stereo partly drawn) [Compound 144, 3-((13S,15R,E)-4-fluoro-17-(hydroxyimino)-13-methyl-7,8,9,11,12,13,14,15,16,17-decahydro-6H-cyclopenta[a]phenanthren-15-yl)-N-(6-fluoropyridin-2-yl)propanamide], the inhibition at 0.1 µM in assay [1] was 74%. Also, in assay [2], the inhibition at 1 µM turned out to be 10%. In addition, in assay [3], the “Rabbit placenta inhibition % @100 nM” value came out at 24%.

In the case of `C[C@]12CCC3c4cccc(F)c4CCC3C1[C@H](CCC(=O)Nc1ncc(F)cc1F)C/C2=N\O` (stereo partly drawn) [Compound 146, N-(3,5-difluoropyridin-2-yl)-3-((13S,15R,E)-4-fluoro-17-(hydroxyimino)-13-methyl-7,8,9,11,12,13,14,15,16,17-decahydro-6H-cyclopenta[a]phenanthren-15-yl)propanamide], the inhibition at 0.1 µM in assay [1] was 92%. Further, the inhibition at 1 µM in assay [2] is 8%. The “Rabbit placenta inhibition % @1000 nM” value in assay [3] (inhibitor 1000 nM) was found to be 63% @.

As to `C[C@]12CCC3c4cccc(F)c4CCC3C1[C@H](CCC(=O)Nc1ccc(C#N)cn1)C/C2=N\O` (stereo partly drawn) [Compound 148, N-(5-cyanopyridin-2-yl)-3-((13S,15R,E)-4-fluoro-17-(hydroxyimino)-13-methyl-7,8,9,11,12,13,14,15,16,17-decahydro-6H-cyclopenta[a]phenanthren-15-yl)propanamide], in assay [1], the inhibition at 0.1 µM is 90%. The inhibition at 1 µM in assay [2] was 9%. Further, the “Rabbit placenta inhibition % @100 nM” value in assay [3] is listed as 35%.

In the case of `C[C@]12CCC3c4ccc(F)cc4CCC3C1[C@H](CCC(=O)Nc1ncccc1F)C/C2=N\O` (stereo partly drawn) [Compound 150a, 3-((13S,15R,E)-3-fluoro-17-(hydroxyimino)-13-methyl-7,8,9,11,12,13,14,15,16,17-decahydro-6H-cyclopenta[a]phenanthren-15-yl)-N-(3-fluoropyridin-2-yl)propanamide], the inhibition at 0.1 µM in assay [1] was 74%. Besides, the inhibition at 1 µM in assay [2] amounted to 0%. Further, the “Rabbit placenta inhibition % @100 nM” value in assay [3] came out at 10%.
